Measured values reported in patent US20100029654A1, “CARDIOVASCULAR COMPOSITIONS AND USE OF THE SAME FOR THE TREATMENT OF ALZHEIMER'S DISEASE” (MOUNT SINAI SCHOOL OF MEDICINE, priority 2006, published 2010).
pEC50: −log10 of the molar value. “Also recorded” adds a separate entry of the source. Like-named read-outs stand apart in the source and are kept apart here.

How the values were obtained:
[1] = system: Aβ1-40; experiment: Aβ1-40 content in conditioned medium of primary cortico-hippocampal neuron cultures from Tg2576 mice (ELISA; primary and secondary dose-response screening); assay type: cell-based, mouse; conditions: for Ab1-40 (% of ctl): drug 100 μM; for pEC50: read-out: EC50 (molar) Aβ1-40
In short: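 Primary cortico-hippocampal neurons from embryonic Tg2576 mice were plated at 1.0×10^5 cells per well on poly-D-lysine-coated 96-well plates in Neurobasal with 2% B27, 0.5 mM L-glutamine and 1% penicillin-streptomycin. Cultures received drug in 1% DMSO, and Aβ1-40 in the conditioned medium was measured by BioSource ELISA 24 hours after treatment, relative to vehicle controls.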

[2] = system: Aβ1-42; experiment: Aβ1-42 content in conditioned medium of primary cortico-hippocampal neuron cultures from Tg2576 mice (ELISA; primary and secondary dose-response screening); assay type: cell-based, mouse; conditions: for pEC50: read-out: EC50 (molar) Aβ1-42
[3] = system: α-secretase; set-up: dose or concentration left out as unconfirmed; conditions: primary Tg2576 neuron cultures, 16 hours
[4] = system: Aβ1-42; experiment: Aβ1-42 content in conditioned medium of primary cortico-hippocampal neuron cultures from Tg2576 mice (ELISA; primary and secondary dose-response screening); assay type: cell-based, mouse; conditions: for Ab1-42 (% of ctl): drug 100 μM
In short: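 Primary cortico-hippocampal neurons from embryonic Tg2576 mouse brain were seeded on poly-D-lysine-coated 96-well plates at 1.0×10^5 cells per well in serum-free Neurobasal medium with 2% B27, 0.5 mM L-glutamine and 1% penicillin-streptomycin. For primary screening, duplicate wells received 100 μM drug (1% DMSO final). Vehicle-treated cultures served as controls, and Aβ1-42 in conditioned medium was measured by commercial ELISA.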

[5] = system: primary cortico-hippocampal neuron cultures; experiment: lactate dehydrogenase (LDH) activity assay in parallel neuron cultures
Method: For in vitro treatments drugs available from “The Spectrum Collection” in stocks of 10 mM in DMSO were applied directly to cultures to the desired concentrations (final 1% DMSO); control primary neuron cultures from Tg2576 embryos were treated with vehicle resulting in a final 1% DMSO.
Cell viability was assessed using a commercial available LDH assay kit according to the manufacture's instruction (Promega).

[6] = system: Tg2576 mice; experiment: blood pressure (systolic, diastolic, MAP) by tail-cuff; assay type: in vivo, mouse
Method: FIG. 1 Tg2576 mice are characterized by normal blood pressure under basal conditions. Baseline measurements of systolic, diastolic blood pressure, and mean arteriole blood pressure (MAP) in ˜11 month old female Tg2576 mice. Strain-, age-, gender-matched WT mice were measured using a commercial blood pressure analysis system designed specifically for small rodents (Hatteras Instruments, NC). Following manufacturer's instruction, mice were temporarily immobilized in a restraining chamber and an inflated tail-cuff wrapped around the tail was used to measure the systolic pressure, diastolic pressure, and MAP. Each blood pressure determination was calculated as the mean of 10 individual measurements per animal (n=6-10 group).
FIG. 6A-C show body weight of mice in response to ˜3 weeks of treatment. […] FIG. 6D-F show the assessment of systolic, diastolic, and MAP blood pressure in Tg2576 mice in response to drug doses below or within the range of those prescribed in hypertension. Blood pressure measurements were conducted using a commercial blood pressure analysis system designed specifically for small rodents (Hatteras Instruments, NC). Following manufacturer's instruction, mice were temporarily immobilized in a restraining chamber and an inflated tail-cuff wrapped around the tail was used to measure pressures. Each blood pressure determination was calculated as the mean of 10 individual measurements per animal. In A-F, values represent mean±SEM values, n=3-5 mice per group. 2-tailed t-test: *P<0.05.
Assessment of blood pressure and glucose utilization. Mouse blood pressure was routinely recorded using a commercial blood pressure analysis system designed specifically for small rodents (Hatteras Instruments, NC). […] Briefly, mice were given a single dose of glucose post-prandially (i.p. 2 g/kg body weight). Blood was collected from the tail-vein periodically over a 2-hour period. Blood glycemic content was assessed using the OneTouch LifeScan System, (LifeScan, Milpitas, Calif.) following the manufacturer's instruction.

[7] = target: T1, Aβ1-42 peptide (Homo sapiens, UniProt P05067); experiment: Aβ-peptide oligomerization assay in vitro (Western blot, A11 dot blot); assay type: biochemical
T1 construct: Lyophilized Aβ1-42 peptide was dissolved
T1 sequence (P05067 672-713 limits assumed): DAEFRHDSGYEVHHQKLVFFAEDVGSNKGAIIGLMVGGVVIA
Method: Aβ-peptideoligomerization assay in vitro: Lyophilized Aβ1-42 peptide was dissolved in 1,1,1,3,3,3,-hexafluoro-2-propanol (HFIP, from Sigma), incubated at room temperature for 60 min, aliquoted, vacuum dried and stored at −80° C. Aβ peptide was dissolved in DMSO and diluted into ddH2O to a final concentration of 100 μg/ml. The peptide was then mixed with equal volume of drugs and incubated at 37° C. for 1 day (Klein, W. L. 2002. Neurochemistry International 41:345-352).
Following incubation, samples were centrifuged at 14,000×g for 10 min at 4° C. Supernatants were mixed with 2× SDS sample buffer and separated on a 10-20% Tris-Tricine gradient SDS gel (Invitrogen). The separated peptides were subjected to Western blot using 6E10 antibody (1:1000, Signet, St. Louis). Immunoreactive signals were visualized by using enhanced chemiluminescence detection (Amersham), and quantified densitometrically (Quantity One, Bio-Rad).
Immunoreactive signals were detected and quantified as described above.

[8] = system: Tg2576 mice; experiment: tolerability: body weight, fluid consumption, glucose tolerance
[9] = system: γ-secretase; set-up: dose or concentration left out as unconfirmed; conditions: primary Tg2576 neuron cultures, 16 hours
[10] = valsartan concentration in blood (serum) by MRM mass spectrometry; assay type: in vivo, mouse; conditions: chronically valsartan-treated mice (40 mg/kg)
Excerpt: A series high throughput studies were initiated to assess and quantify antihypertensive drug levels and related metabolites in Tg 2576 and WT controls following in vivo treatments. […] Presently, using QSTAR (QqTOF) mass spectrometry, which delivers high sensitivity and resolution as well as unparalleled mass accuracy for determination of molecular weights of drugs and related metabolites at femtomole levels, the inventor is proceeding with studies aimed at detecting and eventually quantitating antihypertensive drugs and related metabolites in the brain or CSF. Thus, these technologies will accurate determination of the penetration of the blood brain barrier of candidate Aβ lowering antihypertensives in response to chronic treatments in vivo.

[11] = Primary Screening, table sorted by Aβ1-40
[12] = conditioned medium of primary cortico-hippocampal neuron cultures from Tg2576 embryos, 24 hours after treatment, relative to vehicle (1% DMSO) control
[13] = primary screening, Tg2576 neuron cultures, table sorted by Aβ1-42
[14] = secondary dose-response screening 0.01-100 μM, 24 hours
[15] = valsartan 10 or 40 mg/kg/day in drinking water, chronic

## N-(1-oxopentyl)-N-[[2-(1H-tetrazol-5-yl) [1,1-biphenyl]-4-yl]methyl]-L-valine [Valsartan]
[1]; [11]
  Ab1-40 (% of ctl): 51.6 % of ctl
[1]; Table IV, dose-response 0.01-100 μM, read-out: EC50 (M): Ab-lowering activity Abeta1-40
  EC50: 1.44e-05 M
[1]; [12]
  pEC50: 4.84
[1]; primary screening, <85% of ctl
  reduced Aβ1-40: reduced Aβ1-40
[1]; [13]
  Ab1-40 (% of ctl): 51.6 % of ctl
[1]; [14]
  pEC50: 4.84
[2]; Table IV, dose-response 0.01-100 μM, read-out: EC50 (M): Ab-lowering activity Aβ1-42
  EC50: 1.79e-05 M
[2]; [12]
  pEC50: 4.75
[2]; [14]
  pEC50: 4.75
[3]
  α-secretase activity: no detectable change
[4]; [11]
  Ab1-42 (% of ctl): 42.0 % of ctl
[4]; primary screening, <85% of ctl
  reducing Aβ1-42: useful in reducing Aβ1-42
[4]; [13]
  Ab1-42 (% of ctl): 42.0 % of ctl
[5]; [11]
  LDH (% of ctl): 94.1 % of ctl
[5]; Table IV
  LDH (at 5F-5 M): no change
[5]; drug at E-5M
  LDH at E-5M % of change: 13.0%
[5]; primary screening, table sorted by Aβ1-42
  LDH (% of ctl): 94.1 % of ctl
[6]; WT mice, valsartan
  systolic, diastolic, MAP blood pressure: no detectable changes in systolic, diastolic, or MAP
[6]; normotensive Tg2576 mice, valsartan 10 or 40 mg/kg/day, chronic
  systolic, diastolic, MAP blood pressure: did not significantly influence systolic, diastolic, or MAP; also recorded: did not influence systolic, diastolic, and MAP blood pressure; also recorded: failed to produce a statistically significant change
[7]
  in vitro anti-Aβ oligomerization activity compared with other Aβ-lowering antihypertensives: qualitatively stronger in vitro anti-Aβ oligomerization activity
[7]; 24 hours after incubation, vs vehicle
  Aβ1-42 oligomerization (A11 dot-blot): prevented Aβ1-42 oligomerization
[7]; valsartan 10 μM, vs vehicle
  prevention of oligomerization of Aβ1-42 (and Aβ1-40) into >40 kDa HMW species (Western Blot): > 5 fold
[8]; [15]
  body weight: no detectable changes in body weight; also recorded: did not significantly influence animal body weight
  fluid intake: did not significantly influence the amount of fluid intake
[8]; valsartan 10 or 40 mg/kg/day, ~5 months
  glucose-tolerance responses: did not significantly influence
[9]
  γ-secretase activity: no detectable change
[10]
  steady state levels in the blood (serum): successfully detected steady state levels
